Experiments:
Assay in all cases: relative viability (nuclei count vs DMSO), 5 days (fraction); higher = more cells survive
[1] = compound: C1=CC(=CC=C1C2=CC(=C(S2)NC(=O)N)C(=O)N)F [TPCA-1] + NC(=O)Nc1cc(-c2cccc(F)c2)sc1C(=O)N[C@H]1CCCNC1 [AZD7762] (partner 0.2 µM)
In short: (§1)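 Five library-drug doses in √10 steps were combined with a fixed anchor-drug dose, or a single drug was given alone, by pin tool to lung cancer cell lines in 1536-well plates the day after seeding. Nuclei were stained and counted after 5 days. Relative viability is the nuclei count in treated wells over that in vehicle wells, taken as the median of duplicate plates.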

[2] = compound: C[C@]12O[C@H](C[C@]1(O)CO)n1c3ccccc3c3c4c(c5c6ccccc6n2c5c31)CNC4=O [Lestaurtinib] + Nc1ncn([C@H]2C[C@H](O)[C@@H](CO)O2)c(=O)n1 [Decitabine] (partner 2 µM)
In short: as §1

[3] = compound: C1=CC(=CC=C1C2=CC(=C(S2)NC(=O)N)C(=O)N)F [TPCA-1] + N=C(N)NC(=N)NCCc1ccccc1 [Phenformin] (partner 250 µM)
In short: as §1

[4] = compound: C1=CC(=CC=C1C2=CC(=C(S2)NC(=O)N)C(=O)N)F [TPCA-1] + Cc1nc(Nc2ncc(C(=O)Nc3c(C)cccc3Cl)s2)cc(N2CCN(CCO)CC2)n1 [Dasatinib] (partner 0.075 µM)
In short: as §1

Cell Line	relative viability ([1]; first compound 0.04 µM)	relative viability ([1]; first compound 0.1265 µM)	relative viability ([1]; first compound 0.4 µM)	relative viability ([1]; first compound 1.265 µM)	relative viability ([1]; first compound 4 µM)	relative viability ([2]; first compound 0.005 µM)	relative viability ([2]; first compound 0.01581 µM)	relative viability ([2]; first compound 0.05 µM)	relative viability ([2]; first compound 0.1581 µM)	relative viability ([2]; first compound 0.5 µM)	relative viability ([3]; first compound 0.04 µM)	relative viability ([3]; first compound 0.1265 µM)	relative viability ([3]; first compound 0.4 µM)	relative viability ([3]; first compound 1.265 µM)	relative viability ([3]; first compound 4 µM)	relative viability ([4]; first compound 0.04 µM)	relative viability ([4]; first compound 0.1265 µM)	relative viability ([4]; first compound 0.4 µM)	relative viability ([4]; first compound 1.265 µM)	relative viability ([4]; first compound 4 µM)
201T	0.704	0.63	0.627	0.582	0.558	0.858	0.93	0.98	0.934	0.926	0.484	0.454	0.425	0.378	0.426	0.577	0.601	0.569	0.576	0.556
A549						0.262	0.253	0.279	0.318	0.185	0.206	0.162	0.151	0.141	0.0882					
A-427	0.881	0.801	0.89	0.811	0.624	0.548	0.544	0.518	0.347	0.2	0.423	0.283	0.371	0.19	0.145	0.752	0.621	0.795	0.745	0.454
ABC-1		0.606	0.935	0.836	0.945	1.31	1.36	1.12	0.96	0.66	0.292	0.22	0.197	0.211	0.203	0.485	0.493	0.614	0.495	0.381
BEN	0.677	0.665	0.9	1.08	0.505	0.787	0.854	0.688	0.459	0.349	0.304	0.262	0.255	0.254	0.249	0.294	0.283	0.335	0.391	0.267
CAL-12T	0.702	0.583	0.667	0.565	0.555						0.622	0.51	0.612	0.51	0.172	0.361	0.486	0.571	0.304	0.154
COR-L23						0.487	0.511	0.384	0.354	0.153	0.483	0.47	0.436	0.415	0.328	0.532	0.434	0.54	0.422	0.42
COR-L 105						0.687	0.663	0.582	0.505	0.385	0.471	0.406	0.448	0.368	0.323	0.307	0.361	0.345	0.225	0.204
ChaGo-K-1	0.869	0.883	0.904	0.8	0.522	0.553	0.574	0.51	0.463	0.461	0.524	0.472	0.54	0.48	0.259	0.754	0.594	0.705	0.561	0.218
EKVX	0.739		0.813	0.669	0.677	0.518		0.357	0.396	0.342	0.215	0.22	0.252	0.198	0.125	0.535	0.542	0.529	0.487	0.627
EMC-BAC-2	1.15	1.09	1.27	1.03	0.72	0.955	1.04	1.01	0.659	0.418	0.604	0.476	0.571	0.4	0.247	0.364	0.352	0.368	0.46	0.343
EPLC-272H	0.368	0.26	0.314	0.26	0.276	0.334	0.354	0.327	0.278	0.3	0.343	0.391	0.292	0.289	0.272	0.449	0.33	0.365	0.421	0.301
H3255	0.925	0.835	0.863	0.688	0.694	0.792	0.565	0.562	0.512	0.366	0.39	0.39	0.353	0.356	0.316	0.421	0.352	0.431	0.305	0.301
HARA	0.317	0.504	0.39	0.471	0.349	0.699	0.749	0.613	0.513	0.214	0.476	0.45	0.469	0.484	0.162	0.298	0.289	0.298	0.257	0.231
HCC-15	1.31	1.09	1.21	1.28	1.15	0.747	0.843	0.683	0.385	0.191	0.578	0.479	0.509	0.435	0.275	0.735	0.495	0.592	0.523	0.392
HCC-44	1	1.01	0.982	1.08	1.02	0.967	0.963	0.926	1.1	0.745	0.195	0.178	0.209		0.153					
HCC-78	0.745	0.742	0.801	0.545	0.497	0.748	0.884	0.712	0.662	0.441	0.724	0.732	0.657	0.693	0.436	0.485	0.452	0.402	0.413	0.297
HCC-366		0.297	0.312	0.185	0.147	0.408	0.343	0.378	0.365	0.222	0.727	0.617	0.652	0.673	0.098	0.729	0.55	0.664	0.539	0.233
